For data set [1], the target named is T1, hERG (human ether-a-go-go related gene potassium channel, KCNH2) (Homo sapiens, UniProt Q12809).
T1 construct: expressed in transfected cells; host or cells: HEK293
Nature of the data set: hERG channel whole-cell patch clamp (Ion Channel Activity Measurement). Type of data set: cell-based. The settings on record: human, room temperature; for inhibition at 1 μM: pH 7.4, 1 μM test article; for inhibition at 10 μM: pH 7.4, 10 μM test article. As to the method: HEK293 cell line expressing the human ERG (ether-a-go-go related gene) potassium channel (Potassium voltage-gated channel subfamily H member 2). cDNA strictly similar to GenBank accession number: NM_000238
(§1) Cells expressing channels were cultured in medium supplemented with 20% FBS in HAM'S F12 culture dish. Cells grew in a humidified incubator at 37° C. under 5% carbon dioxide. To passage cells, remove poor medium and rinse the cells once with PBS 1X. […] Place plate on a 37° C. warming incubator 5 min. As soon as cells are detached, add 5 ml of 37° C. complete medium. Draw cell suspension into a sterile pipet and homogenize cells gently to dissociate cells aggregates. Amplify or maintain the cells by seeding 2.5*105 cells in a 6 cm dish (final volume: 5 ml). To maintain electrophysiological performances, cell density must not exceed 80%. On the day before patch clamp experiment, 3*103 cells were seeded on coverslips in the 24-well plate and incubated at 37° C. in 5% carbon dioxide.
(§2) Glass pipette (BF150-86-10, Sutter Instruments) was made by puller (P97, Sutter Instruments). The glass pipette was manipulated using Micro-manipulator (Carm-C-S, MCI Instruments) under the microscope (AE31EF-INV, Motic). After touching the cell, a slight suction was applied to achieve high seal (GΩ). Fast capacitance (in pF) compensation was made after high seal was achieved; after achieving high seal, the membrane was broken, Cell capacitance (in pF) compensation was made from whole-cell capacitance compensation after the whole cell mode was achieved. No leak subtraction was made.
(§3) Cell was incubated with the test article for 5 minutes, or until the current reached a steady-state level. Multiple concentrations of test article were tested. The test articles were applied gradually from low to high concentration. The test and control solutions were flown into a recording chamber mounted on the stage of an inverted microscope via a gravity-fed solution delivery system. During the experiment, solutions were withdrawn from the recording chamber by vacuum aspiration. Each concentration was tested at multiple times. Each cell acted as its own control. All tests were performed at room temperature (23-25° C.).
hERG current was recorded under a holding potential at −80 mV and then depolarized to 30 mV for 2.5 seconds to activate the hERG channel. The peak tail currents were induced by a repolarizing pulse to −50 mV for 4 seconds. This voltage-clamp pulse protocol was performed continuously during the experiment. An interpulse interval of 10 seconds allowed recovery from inactivation. An interpulse of −50 mV test for 0.5 second before 30 mV depolarized step was included for leak current correction
In general terms: Block of hERG is tested as a sign of cardiac risk.

Data set [2] has as its target T2, CaV1.2 (L-type voltage-dependent calcium channel; CACNA1C, CACNB2, CACNA2D1) (Homo sapiens, UniProt Q13936).
T2 construct: expressed in transfected cells; host or cells: CHO
Nature of the data set: CaV1.2 channel whole-cell patch clamp (Ion Channel Activity Measurement). Type of data set: cell-based. The settings on record: human, room temperature; for inhibition at 5 min, 1 μM: pH 7.4, 1 μM test article; for inhibition at 5 min, 10 μM: pH 7.4, 10 μM test article, read-out: CaV 1.2 10 μM (ion-channel inhibition). As for the experimental part: • CHO cell line stably expressing human calcium channel, voltage-dependent, L type, • CACNA1C: cDNA strictly similar to GenBank accession number: NM_000719 • CACNB2: cDNA strictly similar to GenBank accession number: NM_000724 • CACNA2D1: cDNA strictly similar to GenBank accession number: NM_000722 Iks Channel Cell Line:
as §1
Bath solution: 140 mM TEA-C1, 2 mM MgCl2·6H2O, 10 mM CaCl2, 10 mM HEPES, 5 mM D-glucose, pH=7.4 with TEA-OH. Pipette solution: 120 mM CsCl, 1 mM MgCl2·6H2O, 10 mM HEPES, 10 mM EGTA, 0.3 mM Na2-GTP, 4 mM Mg-ATP, pH=7.2 with CsOH.
as §2, §3
Cav1.2 current was recorded under a holding potential at −80 mV and then depolarized to +10 mV for 0.3 seconds. This protocol was repeated at 20 s intervals to observe the effect of test articles on the peak of Cav1.2 current.
Background: In patch-clamp work, channel activity is measured electrically.

[3] abbreviates: HEK293 cells expressing the human ERG potassium channel.

Structures are written as SMILES.

As usually defined, the inhibition is the percentage by which the read-out fell short of the control.

T2 sequence (Q13936 1-2138 isoform Q13936-12): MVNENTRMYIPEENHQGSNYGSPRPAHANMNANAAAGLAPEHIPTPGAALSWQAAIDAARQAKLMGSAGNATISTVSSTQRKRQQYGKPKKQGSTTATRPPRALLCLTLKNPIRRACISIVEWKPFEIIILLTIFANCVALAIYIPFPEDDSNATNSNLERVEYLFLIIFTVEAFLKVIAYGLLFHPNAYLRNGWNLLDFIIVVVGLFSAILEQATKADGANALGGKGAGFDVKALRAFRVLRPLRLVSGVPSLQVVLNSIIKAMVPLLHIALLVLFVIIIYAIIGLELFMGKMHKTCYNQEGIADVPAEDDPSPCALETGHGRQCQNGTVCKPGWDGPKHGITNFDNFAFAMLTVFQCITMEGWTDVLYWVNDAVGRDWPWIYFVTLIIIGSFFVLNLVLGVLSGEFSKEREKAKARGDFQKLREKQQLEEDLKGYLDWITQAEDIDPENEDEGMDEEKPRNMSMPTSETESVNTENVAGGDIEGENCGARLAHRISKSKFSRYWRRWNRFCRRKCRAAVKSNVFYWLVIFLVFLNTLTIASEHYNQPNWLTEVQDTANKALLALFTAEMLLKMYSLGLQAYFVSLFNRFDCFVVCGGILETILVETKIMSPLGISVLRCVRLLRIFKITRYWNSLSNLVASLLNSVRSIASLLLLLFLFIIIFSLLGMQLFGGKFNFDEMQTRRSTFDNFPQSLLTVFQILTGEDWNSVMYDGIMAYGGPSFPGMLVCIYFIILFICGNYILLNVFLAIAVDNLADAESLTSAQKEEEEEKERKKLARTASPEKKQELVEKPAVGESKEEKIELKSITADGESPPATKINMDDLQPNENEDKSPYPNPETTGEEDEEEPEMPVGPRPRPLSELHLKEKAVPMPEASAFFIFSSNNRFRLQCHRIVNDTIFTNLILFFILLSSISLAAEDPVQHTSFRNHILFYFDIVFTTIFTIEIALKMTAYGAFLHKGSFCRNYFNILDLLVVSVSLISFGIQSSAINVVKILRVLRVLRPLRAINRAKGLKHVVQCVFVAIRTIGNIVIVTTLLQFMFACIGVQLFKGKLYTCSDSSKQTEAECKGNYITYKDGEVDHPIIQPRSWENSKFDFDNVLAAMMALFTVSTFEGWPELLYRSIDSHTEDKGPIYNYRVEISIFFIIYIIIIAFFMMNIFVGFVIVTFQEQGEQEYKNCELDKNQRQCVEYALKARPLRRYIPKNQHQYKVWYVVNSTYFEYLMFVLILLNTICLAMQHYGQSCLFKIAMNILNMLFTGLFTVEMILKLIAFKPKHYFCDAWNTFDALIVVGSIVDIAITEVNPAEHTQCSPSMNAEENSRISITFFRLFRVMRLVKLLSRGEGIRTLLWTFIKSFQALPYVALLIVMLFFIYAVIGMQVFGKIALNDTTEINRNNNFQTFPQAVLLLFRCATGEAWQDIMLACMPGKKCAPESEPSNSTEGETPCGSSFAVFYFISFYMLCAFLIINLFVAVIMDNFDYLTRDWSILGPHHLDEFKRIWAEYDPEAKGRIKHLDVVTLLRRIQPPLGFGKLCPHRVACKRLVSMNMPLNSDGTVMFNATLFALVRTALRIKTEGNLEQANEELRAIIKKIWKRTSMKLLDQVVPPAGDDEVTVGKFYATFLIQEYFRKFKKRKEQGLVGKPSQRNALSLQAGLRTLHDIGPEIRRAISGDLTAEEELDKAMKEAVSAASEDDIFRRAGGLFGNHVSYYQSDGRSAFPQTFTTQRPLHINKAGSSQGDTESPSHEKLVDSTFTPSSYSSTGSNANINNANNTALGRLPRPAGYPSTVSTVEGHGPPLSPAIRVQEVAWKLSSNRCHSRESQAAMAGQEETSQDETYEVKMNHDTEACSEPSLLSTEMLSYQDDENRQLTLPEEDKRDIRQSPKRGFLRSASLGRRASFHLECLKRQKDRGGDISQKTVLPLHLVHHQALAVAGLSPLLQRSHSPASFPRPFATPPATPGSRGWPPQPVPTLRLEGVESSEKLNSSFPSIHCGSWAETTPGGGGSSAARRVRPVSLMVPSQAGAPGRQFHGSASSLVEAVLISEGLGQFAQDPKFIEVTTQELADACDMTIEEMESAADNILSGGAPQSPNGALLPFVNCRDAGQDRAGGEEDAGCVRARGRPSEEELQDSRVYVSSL
T2 sequence (Q08289 1-605 isoform Q08289-2 partner): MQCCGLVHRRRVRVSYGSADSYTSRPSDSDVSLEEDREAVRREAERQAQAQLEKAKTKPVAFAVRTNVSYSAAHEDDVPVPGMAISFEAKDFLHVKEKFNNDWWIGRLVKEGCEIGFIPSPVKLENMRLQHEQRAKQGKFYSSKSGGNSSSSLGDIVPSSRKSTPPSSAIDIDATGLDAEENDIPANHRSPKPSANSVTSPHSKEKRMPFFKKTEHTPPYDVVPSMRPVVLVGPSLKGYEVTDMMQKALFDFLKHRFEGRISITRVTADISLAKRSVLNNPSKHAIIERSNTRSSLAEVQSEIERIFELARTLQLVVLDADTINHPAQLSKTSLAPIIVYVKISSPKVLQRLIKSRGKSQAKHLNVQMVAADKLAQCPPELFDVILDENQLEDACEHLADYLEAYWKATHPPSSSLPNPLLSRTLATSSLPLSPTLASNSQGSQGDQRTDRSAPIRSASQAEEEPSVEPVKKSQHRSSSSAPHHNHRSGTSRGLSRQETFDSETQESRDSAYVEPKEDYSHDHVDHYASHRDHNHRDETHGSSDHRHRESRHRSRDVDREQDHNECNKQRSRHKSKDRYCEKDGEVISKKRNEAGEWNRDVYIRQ
T2 sequence (P54289 25-1091 isoform P54289-2 partner limits assumed): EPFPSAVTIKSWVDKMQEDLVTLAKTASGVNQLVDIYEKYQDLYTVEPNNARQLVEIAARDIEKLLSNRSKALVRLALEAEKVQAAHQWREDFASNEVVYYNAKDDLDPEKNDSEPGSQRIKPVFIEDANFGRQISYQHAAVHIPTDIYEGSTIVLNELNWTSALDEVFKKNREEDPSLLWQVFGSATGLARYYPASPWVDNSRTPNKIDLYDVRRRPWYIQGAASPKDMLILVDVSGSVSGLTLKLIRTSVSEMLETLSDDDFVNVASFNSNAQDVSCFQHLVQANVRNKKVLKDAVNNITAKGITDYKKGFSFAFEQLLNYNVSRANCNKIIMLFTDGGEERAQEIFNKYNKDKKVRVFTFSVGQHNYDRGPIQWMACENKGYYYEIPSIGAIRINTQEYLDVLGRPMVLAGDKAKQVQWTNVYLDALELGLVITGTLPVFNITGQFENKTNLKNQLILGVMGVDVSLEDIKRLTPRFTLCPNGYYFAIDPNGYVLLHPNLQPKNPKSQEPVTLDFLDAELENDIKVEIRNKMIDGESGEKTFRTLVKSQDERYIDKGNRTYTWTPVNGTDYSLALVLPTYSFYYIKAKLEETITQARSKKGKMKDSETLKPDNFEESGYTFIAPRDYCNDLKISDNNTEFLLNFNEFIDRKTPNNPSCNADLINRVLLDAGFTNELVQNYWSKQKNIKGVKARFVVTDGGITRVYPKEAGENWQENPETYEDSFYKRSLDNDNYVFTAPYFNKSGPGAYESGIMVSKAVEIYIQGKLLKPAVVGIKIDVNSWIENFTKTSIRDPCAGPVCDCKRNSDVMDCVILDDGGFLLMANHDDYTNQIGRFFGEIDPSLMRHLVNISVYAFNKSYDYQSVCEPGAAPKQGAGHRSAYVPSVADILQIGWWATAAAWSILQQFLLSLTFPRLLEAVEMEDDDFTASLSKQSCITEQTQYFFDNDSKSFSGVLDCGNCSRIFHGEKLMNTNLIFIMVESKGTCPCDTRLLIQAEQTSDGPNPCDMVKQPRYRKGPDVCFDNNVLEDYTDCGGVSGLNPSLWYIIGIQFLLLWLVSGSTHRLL
T2 sequence (P54289 957-1103 partner limits assumed): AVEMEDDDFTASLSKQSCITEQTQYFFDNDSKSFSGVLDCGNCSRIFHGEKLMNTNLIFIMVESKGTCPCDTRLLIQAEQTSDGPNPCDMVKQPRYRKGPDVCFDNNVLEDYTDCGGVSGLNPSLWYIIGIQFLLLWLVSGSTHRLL
T1 sequence (Q12809 whole entry): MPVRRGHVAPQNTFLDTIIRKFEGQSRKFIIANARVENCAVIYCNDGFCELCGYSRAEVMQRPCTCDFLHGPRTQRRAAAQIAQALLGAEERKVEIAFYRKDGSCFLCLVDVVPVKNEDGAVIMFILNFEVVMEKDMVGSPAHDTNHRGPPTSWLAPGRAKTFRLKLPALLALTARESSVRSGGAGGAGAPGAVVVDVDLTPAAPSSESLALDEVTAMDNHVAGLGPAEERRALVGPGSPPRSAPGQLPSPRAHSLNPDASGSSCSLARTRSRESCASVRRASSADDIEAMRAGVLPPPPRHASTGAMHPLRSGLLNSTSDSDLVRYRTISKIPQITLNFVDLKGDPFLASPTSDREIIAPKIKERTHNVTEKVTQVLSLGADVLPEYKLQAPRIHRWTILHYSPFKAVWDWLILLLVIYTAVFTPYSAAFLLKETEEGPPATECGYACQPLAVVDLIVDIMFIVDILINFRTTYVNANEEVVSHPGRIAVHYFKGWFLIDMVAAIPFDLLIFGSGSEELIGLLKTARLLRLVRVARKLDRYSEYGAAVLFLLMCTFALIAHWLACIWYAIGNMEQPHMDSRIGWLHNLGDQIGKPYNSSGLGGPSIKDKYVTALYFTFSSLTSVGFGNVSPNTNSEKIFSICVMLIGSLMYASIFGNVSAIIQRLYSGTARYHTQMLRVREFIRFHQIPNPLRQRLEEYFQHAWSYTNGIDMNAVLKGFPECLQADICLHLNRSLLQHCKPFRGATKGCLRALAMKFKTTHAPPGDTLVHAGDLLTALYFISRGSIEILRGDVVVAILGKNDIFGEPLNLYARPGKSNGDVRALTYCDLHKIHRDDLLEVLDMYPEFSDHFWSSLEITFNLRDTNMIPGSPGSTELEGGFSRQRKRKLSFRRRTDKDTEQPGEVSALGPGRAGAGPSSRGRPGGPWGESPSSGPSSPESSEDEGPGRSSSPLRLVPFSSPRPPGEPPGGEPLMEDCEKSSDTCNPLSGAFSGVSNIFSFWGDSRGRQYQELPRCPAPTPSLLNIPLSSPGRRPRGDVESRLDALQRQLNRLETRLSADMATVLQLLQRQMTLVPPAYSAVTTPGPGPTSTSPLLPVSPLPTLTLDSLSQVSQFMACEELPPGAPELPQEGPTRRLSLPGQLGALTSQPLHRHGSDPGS

Take `Oc1ccc2c(c1Cc1c(O)ccc3ccccc13)CNCC2` [Compound A141, 8-((2-hydroxynaphthalen-1-yl)methyl)-1,2,3,4-tetrahydroisoquinolin-7-ol]: in data set [1] (setting [3]), the inhibition at 1 μM was below 25% and the inhibition at 10 μM fell in the range of 25 to 50%. Besides, in data set [2], the inhibition at 5 min, 1 μM is below 25% and the inhibition at 5 min, 10 μM is below 25%.

In data set [1] (setting [3]), `O=C(c1c(O)ccc2ccccc12)c1c(OCCN2CCCC2)ccc2ccccc12` [Compound A234, (2-hydroxynaphthalen-1-yl)(2-(2-(pyrrolidin-1-yl)ethoxy)naphthalen-1-yl)methanone] yielded an inhibition at 1 μM of 75 to 100% and an inhibition at 10 μM of 75 to 100%. In data set [2], the inhibition at 5 min, 1 μM was below 25% and the inhibition at 5 min, 10 μM lay within 75 to 100%.

In data set [1] (setting [3]), `CC(C)c1cc2ccccc2c(Cc2c(O)c(C(C)C)cc3ccccc23)c1O` [Compound A081, 1,1′-methylenebis(3-isopropylnaphthalen-2-ol)] came in with an inhibition at 1 μM below 25% and an inhibition at 10 μM of 50 to 75%. Besides, in data set [2], the inhibition at 5 min, 1 μM is below 25% and the inhibition at 5 min, 10 μM lay within 25 to 50%.

In data set [1] (setting [3]), `CCN(CC)CCOc1ccc2ccccc2c1N(C)c1c(OC)ccc2ccccc12` [Compound A111-I-2, 2-(2-(diethylamino)ethoxy)-N-(2-methoxynaphthalen-1-yl)-N-methylnaphthalen-1-amine 2,2,2-trifluoroacetate] yielded an inhibition at 1 μM of 50 to 75% and an inhibition at 10 μM of 75 to 100%. Also, in data set [2], the inhibition at 5 min, 1 μM is below 25% and the inhibition at 5 min, 10 μM is 25 to 50%.

As to `Oc1cccc2c1C(c1c(O)ccc3ccccc13)CCC2` (centres unmarked) [Compound A077, 1′,2′,3′,4′-tetrahydro-[1,1′-binaphthalene]-2,8′-diol], in data set [1] (setting [3]), the inhibition at 1 μM is below 25% and the inhibition at 10 μM lay within 50 to 75%. Also, in data set [2], the inhibition at 5 min, 1 μM is below 25% and the inhibition at 5 min, 10 μM is below 25%.

Turning to `CC(=O)N(c1c(O)ccc2ccccc12)c1c(O)ccc2ccccc12` [Compound A075, N,N-bis(2-hydroxynaphthalen-1-yl)acetamide], in data set [1] (setting [3]), the inhibition at 1 μM was below 25% and the inhibition at 10 μM was below 25%. Further, in data set [2], the inhibition at 5 min, 1 μM is below 25% and the inhibition at 5 min, 10 μM was below 25%.

Take `Cc1ccc(O)c(Cc2c(O)ccc(C)c2C)c1C` [Compound A017, 2,2′-methylenebis(3,4-dimethylphenol)]: in data set [1] (setting [3]), the inhibition at 1 μM was below 25% and the inhibition at 10 μM is 25 to 50%. Further, in data set [2], the inhibition at 5 min, 1 μM is below 25% and the inhibition at 5 min, 10 μM fell in the range of 25 to 50%.

Consider `CCN(CC)CCOc1ccc2nccnc2c1Cc1c(O)ccc2ccccc12` [Compound A168, 1-((6-(2-(diethylamino)ethoxy)quinoxalin-5-yl)methyl)naphthalen-2-ol], for which, in data set [1] (setting [3]), the inhibition at 1 μM was below 25% and the inhibition at 10 μM was below 25%. In data set [2], the inhibition at 5 min, 1 μM was below 25% and the inhibition at 5 min, 10 μM was below 25%.

In data set [1] (setting [3]), `CS(=O)(=O)Nc1ccc2ccccc2c1Cc1c(O)ccc2ccccc12` [Compound A025, N-(1-((2-hydroxynaphthalen-1-yl)methyl)naphthalen-2-yl)methanesulfonamide] registered an inhibition at 1 μM below 25% and an inhibition at 10 μM of 25 to 50%. Moreover, in data set [2], the inhibition at 5 min, 1 μM is below 25% and the inhibition at 5 min, 10 μM fell in the range of 25 to 50%.

`CC(C)Oc1ccc2ccccc2c1Cc1c(OCCN2CCCC2)ccc2ccccc12` [Compound A256, 1-(2-((1-((2-isopropoxynaphthalen-1-yl)methyl)naphthalen-2-yl)oxy)ethyl)pyrrolidine]: in data set [1] (setting [3]), the inhibition at 1 μM lay within 50 to 75% and the inhibition at 10 μM lay within 75 to 100%. For the same molecule, in data set [2], the inhibition at 5 min, 1 μM is below 25% and the inhibition at 5 min, 10 μM is 75 to 100%.

In data set [1] (setting [3]), `CCOCOc1ccc2ccccc2c1Cc1c(OCCN2CCCC2)ccc2ccccc12` [Compound A254, 1-(2-((1-((2-(ethoxymethoxy)naphthalen-1-yl)methyl)naphthalen-2-yl)oxy)ethyl)pyrrolidine] showed an inhibition at 1 μM below 25% and an inhibition at 10 μM of 75 to 100%. Also, in data set [2], the inhibition at 5 min, 1 μM is below 25% and the inhibition at 5 min, 10 μM was 50 to 75%.

Regarding `COc1cccc(C2CCNCC2)c1Cc1c(OC)cccc1C1CCNCC1` [Compound A194], in data set [1], the inhibition at 1 μM is below 25% and the inhibition at 10 μM fell in the range of 25 to 50%. Also, in data set [2], the inhibition at 5 min, 1 μM was in the range of 25 to 50% and the inhibition at 5 min, 10 μM is 50 to 75%.

For the molecule `CCOCOc1ccc2ccccc2c1Cc1c(OCC2CCNCC2)ccc2ccccc12` [Compound A279, 4-(((1-((2-(ethoxymethoxy)naphthalen-1-yl)methyl)naphthalen-2-yl)oxy)methyl)piperidine], in data set [1] (setting [3]), the inhibition at 1 μM lay within 75 to 100% and the inhibition at 10 μM was in the range of 75 to 100%. Besides, in data set [2], the inhibition at 5 min, 1 μM was below 25% and the inhibition at 5 min, 10 μM fell in the range of 75 to 100%.

For the molecule `NC(=O)c1ccc2c(Cc3c(O)ccc4ccccc34)c(O)ccc2c1` [Compound A122, 6-hydroxy-5-((2-hydroxynaphthalen-1-yl)methyl)-2-naphthamide], in data set [1] (setting [3]), the inhibition at 1 μM was in the range of 25 to 50% and the inhibition at 10 μM fell in the range of 75 to 100%. In data set [2], the inhibition at 5 min, 1 μM was below 25% and the inhibition at 5 min, 10 μM fell in the range of 75 to 100%.

Consider `COCCOc1ccc2ccccc2c1Cc1c(OCCN2CCCC2)ccc2ccccc12` [Compound A258, 1-(2-((1-((2-(2-methoxyethoxy)naphthalen-1-yl)methyl)naphthalen-2-yl)oxy)ethyl)pyrrolidine], for which, in data set [1] (setting [3]), the inhibition at 1 μM was 75 to 100% and the inhibition at 10 μM was in the range of 75 to 100%. Also, in data set [2], the inhibition at 5 min, 1 μM is below 25% and the inhibition at 5 min, 10 μM is 75 to 100%.

As for `CCCCCCOc1ccc2ccccc2c1Cc1c(OCCN)ccc2ccccc12` [Compound A247, 2-((1-((2-(hexyloxy)naphthalen-1-yl)methyl)naphthalen-2-yl)oxy)ethan-1-amine], the inhibition at 1 μM in data set [1] (setting [3]) was below 25%. Further, the inhibition at 5 min, 1 μM in data set [2] was below 25%.

In data set [1] (setting [3]), `Oc1ccc2c(c1Cc1c(O)ccc3c1CNCC3)CCCC2` [Compound A141-I-1, 8-((2-hydroxy-5,6,7,8-tetrahydronaphthalen-1-yl)methyl)-1,2,3,4-tetrahydroisoquinolin-7-ol] had an inhibition at 1 μM below 25% and an inhibition at 10 μM below 25%. For the same molecule, in data set [2], the inhibition at 5 min, 1 μM is below 25% and the inhibition at 5 min, 10 μM is below 25%.

As for `COc1cccc(-c2ccncc2)c1Cc1c(O)cccc1-c1ccncc1` [Compound A118-I-1, 2-(2-methoxy-6-(pyridin-4-yl)benzyl)-3-(pyridin-4-yl)phenol], in data set [1] (setting [3]), the inhibition at 1 μM is below 25% and the inhibition at 10 μM is 25 to 50%. In data set [2], the inhibition at 5 min, 1 μM was below 25% and the inhibition at 5 min, 10 μM is below 25%.

In data set [1] (setting [3]), `CCN(CC)CCNC(=O)c1ccc2ccccc2c1Cc1c(OC)ccc2ccccc12` [Compound A238, N-(2-(diethylamino)ethyl)-1-((2-methoxynaphthalen-1-yl)methyl)-2-naphthamide] registered an inhibition at 1 μM of 75 to 100% and an inhibition at 10 μM of 75 to 100%. In data set [2], the inhibition at 5 min, 1 μM lay within 25 to 50% and the inhibition at 5 min, 10 μM is 75 to 100%.

With `CC(C)(O)c1cc2ccccc2c(Cc2c(O)c(C(C)(C)O)cc3ccccc23)c1O` [Compound A047, 1,1′-methylenebis(3-(2-hydroxypropan-2-yl)naphthalen-2-ol)], the inhibition at 1 μM in data set [1] (setting [3]) is below 25%. Besides, in data set [2], the inhibition at 5 min, 1 μM was below 25% and the inhibition at 5 min, 10 μM lay within 50 to 75%.

(Values after patent US12187681B2 (Shanghai East Hospital, priority 2019, dated 2025).)
